The values that follow come from US7473783B2, “Bicyclic pyrazolo protein kinase modulators” (SGX Pharmaceuticals, Inc., priority 2003, dated 2009).

The term IC50 denotes the midpoint of a concentration-inhibition curve. Read a low IC50 as higher potency.

The subject of one test is MV4-11 cells. The experiment in a line: Cell survival assay (96-well XTT / 384-well AlamarBlue), MV4-11. The conditions noted are these: Homo sapiens, Table 10, symbol outside brackets, 72 hours. The format is cell-based. As for the experimental part: (§1) Flt3 cell line selection was performed according to the following two known methodologies: Kelly, et al, Cancer Cell 1:421-32 (2002); and Ye, et al, Blood 100: 2941-2949 (2002). MV4-11 and THP cells are maintained in Iscove's Modified Dulbecco's Medium supplemented with 10% fetal bovine serum (FBS) and penicillin/streptomycin, Ba/F3 cells are maintained in RPMI 1640 supplemented with 10% FBS, penicillin/streptomycin and 5ng/ml recombinant mouse IL-3.
(§2) Compounds were tested in both of the following assays in triplicates.
(§3) 96-well XTT assay: Cells are grown in their growth media containing various concentrations of compounds (triplicates) on a 96-well plate for 72 hours at 37° C. The starting cell number is 8000 cells per well and volume is 120 μl. At the end of the 72-hour incubation, 40μl of XTT labeling mixture (50:1 solution of sodium 3′-[1 -(pheylamino-carbonyl)-3,4-tetrazolium]-bis (4-methoxy-6-nitro)benzene sulfonic acid hydrate and Electron-coupling reagent: PMS (N-methyl dibenzopyrazine methyl sulfate) is added to each well of the plate. After additional 2 hours of incubation at 37° C., the absorbance reading at 405 nm with background correction at 650 nm is done using a spectrophotometer.
(§4) 384-well AlamarBlue assay: 90 μl of cell suspension is plated onto each well of a 384-well plate preprinted with 0.5 μl of compound in DMSO or DMSO only. The starting cell number is 4000 cells per well. After 72-hour incubation, 10 μl of AlamarBlue solution (440 μM resazurin in PBS) is then added to each well of the plate. After additional 2-hour incubation at 37° C., fluorescence is measured using a TECAN plate reading with excitation at 535 nm and emission 591 nm.

The test system of another test is THP cells. In words: Cell survival assay (96-well XTT / 384-well AlamarBlue), THP. The test is classed as cell-based. The conditions noted are these: Table 10; symbol in brackets; 72 hours. As for the experimental part: as §1, §2, §3, §4
(Formazan colour is commonly taken as a measure of viable cells.)

Take `O=C(Nc1nc2[nH]nc(-c3ccc(Cl)cc3)c2s1)c1ccccc1` [drawing 281]: the figures for the IC50 in the test on MV4-11 cells and in the test on THP cells were 1 to 10 µM and 11 to 100 µM, respectively.
`O=C(Nc1nc2[nH]nc(-c3ccccc3)c2s1)c1ccncc1` [drawing 282]: the IC50 in the test on MV4-11 cells fell in the range of 1 to 10 µM; with THP cells, 11 to 100 µM.
As to `COCCOCC(=O)Nc1nc2[nH]nc(-c3ccccc3)c2s1` [drawing 283], the half-maximal inhibitory concentration (IC50) fell in the range of 1 to 10 µM in the test on MV4-11 cells and 11 to 100 µM with THP cells.
For the compound `CC(=O)N1CCC(C(=O)Nc2nc3[nH]nc(-c4ccccc4)c3s2)CC1` [drawing 284], the results for the IC50 in the test with MV4-11 cells and in the test on THP cells were 1 to 10 µM and 11 to 100 µM, respectively.
